In brackets after ≈: the same amount, converted by molar mass.
settings: buffer; pH 7.4; 200.0 µM

Compound	solubility kinetic
Cc1cccc2nc3c(nc12)-c1ccccc1C3=O	0.5 µg/mL (≈ 2.03 µM)
COCCNC(=S)N1CCN(c2nc3ccccc3s2)CC1	35.3 µg/mL (≈ 105 µM)
CCOc1ccc(S(=O)(=O)N2CCN(C(=O)c3ccco3)CC2)cc1	> 54.7 µg/mL
Brc1ccc(C2NCCS2)cc1 (configuration not stated)	29.3 µg/mL (≈ 120 µM)
Cc1cc(C)c2c(CC(=O)NC(C)C)coc2c1	9.5 µg/mL (≈ 38.7 µM)
Cc1cccc(Cc2c(C)[nH]c(=O)c(C#N)c2C)c1	5.5 µg/mL (≈ 21.8 µM)
O=C1CCC(=O)N1c1ccc(S(=O)(=O)N2CCCC2)cc1	45.4 µg/mL (≈ 147 µM)
CCOC(=O)C1CCN(C(=O)COC(=O)/C=C/c2ccccc2)CC1	> 51.8 µg/mL
COc1ccc(S(=O)(=O)Nc2ccc(Nc3ccccc3)cc2)cc1	4.7 µg/mL (≈ 13.3 µM)
CCOc1ccc(CN(C)C(=O)Cc2c[nH]c3ccccc23)cc1	42 µg/mL (≈ 130 µM)
Cc1cc(C)cc(C(=O)NCCN2CCOCC2)c1	> 39.4 µg/mL
O=C(Nc1cccc(Cl)c1Cl)C1CCCO1 (configuration not stated)	26.7 µg/mL (≈ 103 µM)
COc1cccc(Oc2nc(-c3ccncc3)nc3ccccc23)c1	< 0.2 µg/mL
O=c1oc2ccccc2c(Cl)c1CN1CCCCC1	41.4 µg/mL (≈ 149 µM)
CCc1nc2ccccc2c(C(=O)OCC(=O)NC2CCCC2)c1C	48.5 µg/mL (≈ 142 µM)
O=C(c1ccccc1Br)N1CCn2c1nc1ccccc12	26.7 µg/mL (≈ 78 µM)
CN1C[C@H](C(=O)N[C@]2(C)O[C@@]3(O)[C@@H]4CCCN4C(=O)[C@H](Cc4ccccc4)N3C2=O)CC2c3cccc4[nH]cc(c34)C[C@H]21.CS(=O)(=O)O (some centres not stated)	62.9 µg/mL
O=C(NCc1ccccc1F)C1CCCN(c2cnccn2)C1 (configuration not stated)	44.7 µg/mL (≈ 142 µM)
Cc1ccc(NC(=O)CN(C)C(=O)/C=C/c2ccc3c(c2)OCO3)cc1	6.8 µg/mL (≈ 19.3 µM)
CCc1ccc(C(=O)OCC(=O)NCC(F)(F)F)cc1	17.9 µg/mL (≈ 61.9 µM)
Cc1ccc(NC(=O)N2CCCC2c2cccs2)cc1 (configuration not stated)	> 43 µg/mL
O=[N+]([O-])c1ccc(-c2nc(-c3ccncc3)no2)cc1	1.3 µg/mL (≈ 4.85 µM)
O=C(O)CC(NC(=O)C1CCCCC1)c1cc([N+](=O)[O-])ccc1Cl (configuration not stated)	> 53.2 µg/mL
Cc1ccc(S(=O)(=O)/N=C(/c2ccccc2)N(C)C)c(C)c1	> 47.5 µg/mL

Compound	solubility kinetic
CC(C)(C)NCc1ccc(OCc2cccs2)cc1.Cl	36.8 µg/mL
O=C(COC(=O)c1cnccn1)Nc1cccc2ccccc12	> 46.1 µg/mL
CS(=O)(=O)N1CCC(C(=O)Nc2ccc(F)cc2)CC1	> 45.1 µg/mL
O=C(NCCCCc1ccccc1)Nc1cccc(F)c1	8.2 µg/mL (≈ 28.6 µM)
O=C(Nc1cccc2c1CCCC2)c1ccccc1Cl	1.8 µg/mL (≈ 6.3 µM)
O=C(CN1C(=O)NC2(CCc3ccccc32)C1=O)Nc1ccccc1Cl (configuration not stated)	> 55.5 µg/mL
Cn1c(/C(C#N)=C(\O)c2ccc([N+](=O)[O-])cc2)nc2ccccc21	< 0.2 µg/mL
C/C(=C\c1ccccc1)CN1CCN(Cc2ccc(C)o2)C(CCO)C1 (configuration not stated)	42.2 µg/mL (≈ 119 µM)
Nc1cccc(NC(=O)CN2CCOCC2)c1	> 35.3 µg/mL
O=C(COC(=O)c1ccc([N+](=O)[O-])o1)NCc1ccc(F)cc1	> 48.3 µg/mL
COc1cccc(OCCCn2ccnc2)c1.Cl	33.1 µg/mL
CC1CC(C)CN(C(=O)C(C)N2CCN(S(=O)(=O)c3ccccc3F)CC2)C1 (configuration not stated)	51.7 µg/mL (≈ 126 µM)
CC(=O)C(C)Oc1ccc(Cc2ncc(C(F)(F)F)cc2Cl)cc1 (configuration not stated)	13.1 µg/mL (≈ 36.6 µM)
CCn1c(=O)cc(C(F)(F)F)[nH]c1=S	> 33.6 µg/mL
O=C(NCCNC(=O)c1ccccn1)c1cccc(F)c1	41.7 µg/mL (≈ 145 µM)
O=C(NC12CC3CC(CC(C3)C1)C2)c1ccc(Br)o1	9.7 µg/mL (≈ 29.9 µM)
CC(C)c1cc(NCCOCCO)n2c(nc3ccccc32)c1C#N	7.8 µg/mL (≈ 23 µM)
COCCN(Cc1ccc(F)cc1)C(=O)c1cc2ccccc2oc1=O	> 53.3 µg/mL
COc1ccc(CNc2cc(C)ccn2)c(O)c1	29.9 µg/mL (≈ 122 µM)
O=C(NCCCCCCNC(=O)c1ccccc1O)c1ccccc1O	1.2 µg/mL (≈ 3.37 µM)
CC(=O)NNc1cc(C)nc(N)n1	> 27.2 µg/mL
Cl.O=C(NN1C(=O)CSC1=S)c1cccnc1	> 43.5 µg/mL
Clc1cccc(C2Nc3cccc4cccc(c34)N2)c1Cl	0.5 µg/mL (≈ 1.59 µM)

Source: PubChem BioAssay AID1996
